Measurements as given in patent US20180271809A1, “USE OF NICLOSAMIDE IN THE TREATMENT OF P53-DEFICIENT CELLS” (AGENCY FOR SCIENCE, TECHNOLOGY AND RESEARCH, priority 2015, published 2018).

Key:
HCT116 p53^−/− cells [1] = assay: Co-culture cell viability / competition assay of H2B-GFP HCT116 p53+/+ and H2B-RFP HCT116 p53−/− cells; type: cell-based
Procedure: Stably expressing H2B-GFP-HCTp53^+/+ cell (wild type p53 cells) and H2B-RFP-HCTp53^−/− cells (cells lacking p53) were grown in co-culture to screen drug compounds sensitizing either wild type p53 cells or p53-negative cells. Briefly, 200 cells of each
HCT116p53^+/+ and HCT116p53^−/− were plated in a pre-coated 384-well drug plates at final cell density of 400 cells per well at a final volume of 80 μl per well. After plating cells into respective wells, plates were incubated for 6 days. After 6 days of drug incubation, plates were imaged in an Incell Analyzer 200 machine by performing a multi-channel read, that is applying FITC staining to count GFP positive cells and Texas Red staining to count RFP positive cells. After imaging, the raw data was processed through the Incell-Investigator software to count the number of GFP positive and RFP positive cells.
Wildtype HCT116 cells expressing H2B-GFP were co-cultured with HCT115 p53^−/− cells expressing H2B-RFP. […]
2000 cells each of H2B-GFP-HCT116p53^+/+ and H2B-RFP-HCT116p53^−/− were grown as co-culture in 96-well plates in a total volume of 100 ∥l. […] After 6 days of recovery, the cells were imaged in an Incell Analyzer 2000 machine and the percentage of viable cells was determined and plotted against the drug concentrations used in the experiment.

HCT116 p53^−/− cells [2] = assay: Colony forming assay (crystal violet) in isogenic HCT116 cell lines; type: cell-based; conditions: 0.5-3 μM, 48 hours of drug treatment, recovery
[3] = test system: Human skin fibroblast cells (TOBA cells); assay: Cell viability (light microscopy) and Annexin V apoptosis assay in p53-depleted human skin fibroblast cells; type: cell-based
Procedure: Human skin fibroblast cells (TOBA cells) were infected either with a control shRNA lentivirus or a p53-targeting shRNA virus (as described in the preceding section). After generation of a stable p53-knockdown (using puro selection), cells were analysed for cell viability in response to different doses of niclosamide. Briefly, wild type Toba cells, and p53 depleted cells were plated at 20,000 cell density in 6 well plates. Next day, cells were either DMSO treated or treated with varying doses of niclosamide. After 48 hours of drug incubation, the drug containing media was replaced with new cell culture medium to start recovery. After 8 days of recovery, the cells were imaged in light microscope at 10× objective lens.
As described above, DMSO and niclosamide-treated cells were analysed for the presence of apoptotic cell death by Annexin V staining. All cells in a well, including both rounded floating (that is, dead or dying cells) and adherent cells (that is, live cells) were collected carefully by trypsinisation and centrifuged at 400 g for 5 minutes. The pellet was resuspended in 200 μl of incubation buffer and after re-suspension, centrifuged at same speed as above to collect the washed sample pellets. […]

[4] = test system: p53-deficient HCT116 spheroid; assay: 3D spheroid growth of co-cultured HCT116 p53+/+ and p53−/− cells; type: cell-based; conditions: 48 hours drug incubation, 6 more days culture
Procedure: H2B-GFP- HCT116p53^+/+ and H2B-RFP-p53^−/− cells were grown as co-culture in a ultralow attachment 96-well cell culture plates to promote the spheroid formation. Briefly, to generate 3D multicellular spheroids, H2B-GFP expressing wild type (WT) p53 cells and H2B-RFP expressing p53-negative cells were each seeded at 250 cells per 100 ∥l culture media into 96-well round-bottomed plate and spun down (1000 g, 5 min). The seeded cells were cultured for two days in 5% CO2 humidified atmosphere at 37° C. On third day, cells were either DMSO treated or treated with different doses of niclosamide. After 48 hours of drug incubation, spheroids were diluted to non-toxic concentrations via media exchange. Treated spheroids were then further cultured for 6 more days. Spheroids were imaged in Incell analyser 2000 with FITC and Texas-Red channels.

[5] = test system: p53 null and p53 mutant cancer cells; assay: Apoptotic cell death assays in p53 null and p53 mutant cancer cell lines; type: cell-based; conditions: data not shown
Procedure: To this end, various cancer cell lines/types were seeded according to their growth rate to be confluent at the same time. These cell lines were each treated with differing niclosamide concentrations for 48 hours. The cells were then allowed to recover in their respective media for 6 days, after which apoptotic cell death assays were performed. The resulting percentage of apoptotic cells in each sample were plotted on a 3D graph (data not shown).

[6] = test system: Mouse embryonic stem cells harbouring a p53K0 mutation; assay: Teratoma growth in nude mice from mouse embryonic stem cells pre-treated with niclosamide; type: in vivo; conditions: mES cells treated with 2 μM for 48 hours before injection into nude mice; tumours observed after 24 days / 3 weeks
Procedure: Mouse embryonic stem cells harbouring a p53K0 mutation were either treated with DMSO or treated with niclosamide at a concentration of 2 μM for 48 hours. The resulting trypsinised cells were then resuspended in Phosphate buffer Saline. The cells were counted and resuspended to result in a final cell concentration of 1×10^6 cells/100 μl. Immediately after counting, the cells were transferred to animal facility for nude mice injection. 100 μl of DMSO treated cells were injected into the right inguinal region, while 100 μl niclosamide treated cells were injected into the left inguinal region of each mouse. After 24 days of the injection, tumour growth was observed. The resulting teratomas were surgically removed analysed to observe the ability of niclosamide to inhibit tumour growth. […] Therefore, an in vivo tumour model in nude mice was utilised. As a control, mouse embryonic stem (mES) cells were injected into nude mice and the mice monitored for the presence of tumour growth (teratomas). mES cells treated with niclosamide or DMSO treated control cells were injected into nude mice and tumour growth monitored after 3 weeks.

[7] = test system: ovarian tumour samples derived from patient biopsy samples; assay: Patient-derived ovarian tumour xenograft mouse model; type: in vivo; conditions: 150 mg/kg once, intravenously; 30 days post treatment
Procedure: Experiments were also performed using a patient-derived xenograft mouse model. In these experiments, ovarian tumour samples derived from patient biopsy samples were implanted into either the left or right flank of the mouse. These tumours were allowed to establish in the mouse and the tumour volume was measured according to standard practice every 2 days post implantation. After reaching a minimum threshold size of about 200 mm^3, the mice were treated once, intravenously, with niclosamide at a concentration of 150 mg/kg. The change in tumour volume was measured for further 30 days post treatment.

[8] = test system: mouse embryonic fibroblast (MEF) cells harbouring p53 mutations (+/R172 or R172/R172); assay: Niclosamide sensitivity of mouse embryonic fibroblast (MEF) cells with wild type or mutant p53; type: cell-based; conditions: p53 +/R172 or R172/R172 versus wild type
Caspase-3 = Caspase-3 immunoblot of niclosamide-treated HCT116 cells; type: cell-based; conditions: HCT116 wild type p53 versus p53 deficient
Procedure: Like human fibroblast cells, these cells were also tested for apoptotic cell death, the data of which is shown in the graphs shown in FIG. 4B). […] Both HCT116 cells with wild type p53 and those which were p53 deficient were treated with niclosamide, and protein samples were immunoblotted with Caspase-3 antibody.

## O=C(Nc1ccc([N+](=O)[O-])cc1Cl)c1cc(Cl)ccc1O [niclosamide, 2′,5-dichloro-4′-nitrosalicylanilide]
HCT116 p53^−/− cells [1]; after 48 hours of drug treatment, compared with DMSO controls
  cell viability, HCT116 p53−/− versus HCT116 p53 wildtype (cell viability assay): decrease in the viability of HCT116 p53^−/− cells to a greater extent than the HCT116 p53 wildtype cells
HCT116 p53^−/− cells [1]; co-culture, 48 hours treatment, 7 days recovery in drug free media
  selective targeting in chemical biology screen (relative percentages of GFP and RFP cells): selectively targeting HCT116 p53^−/− cells
HCT116 p53^−/− cells [2]
  cell viability, HCT116 p53−/− versus HCT116 p53 wildtype (colony formation assay): decrease in the viability of HCT116 p53^−/− cells to a greater extent than the HCT116 p53 wildtype cells
[3]; 1-4 μM, 48 hours, then recovery, flow cytometry
  apoptosis (Annexin V) in p53-deficient versus wildtype human fibroblasts: greater extent of apoptosis in p53-deficient human fibroblasts
[3]; shp53 versus shcontrol cells
  sensitivity / killing of p53-deficient human fibroblast cells (FIG. 3 taken together): preferential killing of p53 deficient cells
[4]
  3D spheroid growth, p53-deficient versus wildtype HCT116: greater reduction of 3D p53-deficient HCT116 spheroid growth compared to wildtype spheroid
[5]; 48 hours treatment, 6 days recovery
  susceptibility (apoptotic cells) of p53 null and p53 mutant cancer cells: strongly susceptible to treatment with niclosamide in a dose dependent manner
[5]; certain cell lines
  cell viability of the remaining (surviving) cells: differentially reduced cell viability of the remaining cells in certain cell lines
[6]
  size of the teratomas versus DMSO control: significant reduction in the size of the teratomas
[7]
  tumour growth (tumour volume) versus PBS control: reduction in tumour growth
[8]
  niclosamide sensitivity of p53 mutant MEF cells (bright field, crystal violet): p53 mutant MEF cells are sensitive to niclosamide
Caspase-3
  induction of cleaved caspase in p53 deficient HCT116 cells (western blot): clear induction of the cleaved caspase in p53 minus
